Source: patent US8183262B2, “Pyridine derivatives as mGluR2 antagonists” (Hoffmann-La Roche Inc., priority 2007, dated 2012)

Legend:
rat mGlu2 receptor = molecular target: T1, rat mGlu2 receptor (Rattus norvegicus, UniProt P31421); experiment: [3H]-LY354740 binding on mGlu2 transfected CHO cell membranes; conditions: inhibition of 10 nM [3H]-LY354740 binding, membranes of CHO cells transfected with rat mGlu2, room temperature, 1 hour
T1 construct: expressed in transfected cells; membranes prepared
T1 sequence (P31421 19-872): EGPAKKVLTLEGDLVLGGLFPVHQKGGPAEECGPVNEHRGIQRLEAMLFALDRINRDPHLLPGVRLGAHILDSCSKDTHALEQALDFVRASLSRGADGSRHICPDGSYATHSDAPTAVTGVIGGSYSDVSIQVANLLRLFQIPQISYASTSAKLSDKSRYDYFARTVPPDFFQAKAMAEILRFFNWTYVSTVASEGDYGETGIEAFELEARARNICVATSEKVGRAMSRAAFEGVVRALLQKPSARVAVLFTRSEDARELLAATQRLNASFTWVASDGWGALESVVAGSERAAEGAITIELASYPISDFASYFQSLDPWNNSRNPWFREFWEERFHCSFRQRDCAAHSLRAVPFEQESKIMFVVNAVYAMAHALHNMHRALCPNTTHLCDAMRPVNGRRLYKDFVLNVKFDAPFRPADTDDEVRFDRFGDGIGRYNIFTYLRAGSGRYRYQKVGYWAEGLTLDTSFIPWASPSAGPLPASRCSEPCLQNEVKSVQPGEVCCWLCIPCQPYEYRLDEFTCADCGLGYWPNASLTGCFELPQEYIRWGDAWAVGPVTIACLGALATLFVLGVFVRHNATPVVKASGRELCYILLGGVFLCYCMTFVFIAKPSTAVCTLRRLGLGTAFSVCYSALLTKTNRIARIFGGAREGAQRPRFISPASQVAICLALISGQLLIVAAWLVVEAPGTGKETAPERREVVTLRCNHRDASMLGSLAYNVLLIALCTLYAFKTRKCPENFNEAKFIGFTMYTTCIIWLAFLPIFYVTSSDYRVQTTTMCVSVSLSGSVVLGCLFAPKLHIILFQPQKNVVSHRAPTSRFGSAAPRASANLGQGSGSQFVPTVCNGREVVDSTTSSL
How it was run: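 Membranes from CHO cells stably expressing rat mGlu2 (25 μg protein/ml) incubated 1 hour at room temperature with 10 nM [3H]-LY354740 and test compound in 50 mM Tris-HCl, 2 mM MgCl2, pH 7.4. Non-specific binding defined with 10 μM DCG IV; bound radioactivity counted after filtration. IC50 from four-parameter logistic fit.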

| Ki (rat mGlu2 receptor) | melting point | Structure (SMILES) |
| --- | --- | --- |
| 4 nM | 196 °C | Cc1cc(-c2ccc(C(F)(F)F)cc2)cc(-c2ccnc(-c3cccc(NS(C)(=O)=O)c3)c2)n1 [Example 318, N-{3-[6-Methyl-4-(4-trifluoromethyl-phenyl)-[2,4′]bipyridinyl-2′-yl]-phenyl}-methanesulfonamide] |
| 16 nM | 209 °C | Cc1cc(-c2ccc(C(F)(F)F)cc2)nc(-c2ccnc(-c3ccc(S(=O)(=O)NC(C)(C)C)s3)c2)c1 [Example 320, 5-[4-Methyl-6-(4-trifluoromethyl-phenyl)-[2,4′]bipyridinyl-2′-yl]-thiophene-2-sulfonic acid tert-butylamide] |
| 3 nM | 110 °C (dec.) | Cc1cc(-c2ccc(C(F)(F)F)cc2)cc(-c2cccc(-c3cccc(S(C)(=O)=O)c3)c2)n1 [Example 353, 2-(3′-Methanesulfonyl-biphenyl-3-yl)-6-methyl-4-(4-trifluoromethyl-phenyl)-pyridine] |
| 1 nM | 208 °C | Cc1cc(-c2ccc(C(F)(F)F)cc2)cc(-c2ccnc(-c3cccc(S(C)(=O)=O)c3)n2)n1 [Example 355, 2-(3-Methanesulfonyl-phenyl)-4-[6-methyl-4-(4-trifluoromethyl-phenyl)-pyridin-2-yl]-pyrimidine] |
| 1 nM | 186 °C | Cc1cc(-c2ccc(C(F)(F)F)cc2)cc(-c2cccc(-c3cccc(S(C)(=O)=O)c3)n2)n1 [Example 356, 6′-(3-Methanesulfonyl-phenyl)-6-methyl-4-(4-trifluoromethyl-phenyl)-[2,2′]bipyridinyl] |
| 39 nM | 144 °C | CSc1cccc(-c2cccc(-c3cc(-c4ccc(C(F)(F)F)cc4)cc(C)n3)n2)c1 [Example 357, 6-Methyl-6′-(3-methylsulfanyl-phenyl)-4-(4-trifluoromethyl-phenyl)-[2,2′]bipyridinyl] |

Second part, the compound before the results:

| Structure (SMILES) | Ki (rat mGlu2 receptor) | melting point |
| --- | --- | --- |
| NS(=O)(=O)c1cnc(-c2cn(-c3cc(-c4ccc(C(F)(F)F)cc4)cc(C(F)(F)F)n3)cn2)s1 [Example 313, 2-{1-[6-Trifluoromethyl-4-(4-trifluoromethyl-phenyl)-pyridin-2-yl]-1H-imidazol-4-yl}-thiazole-5-sulfonic acid amide] | 18 nM | > 250 °C |
| Cc1cc(-c2ccc(C(F)(F)F)cc2)cc(-c2ccnc(-c3cccc(S(=O)(=O)N4CCOCC4)c3)c2)n1 [Example 346, 6-Methyl-2′-[3-(morpholine-4-sulfonyl)-phenyl]-4-(4-trifluoromethyl-phenyl)-[2,4′]bipyridinyl] | 4 nM | 115 °C |
| Cc1cc(-c2ccc(C(F)(F)F)cc2)cc(-c2ccnc(-c3cccc(S(=O)(=O)N4CCN(C)CC4)c3)c2)n1 [Example 350, 6-Methyl-2′-[3-(4-methyl-piperazine-1-sulfonyl)-phenyl]-4-(4-trifluoromethyl-phenyl)-[2,4′]bipyridinyl] | 22 nM | 180 °C (dec.) |
| Cc1cc(-c2ccc(C(F)(F)F)cc2)cc(-c2ccnc(-c3ccnc(N)c3)n2)n1 [Example 360, 4-{4-[6-Methyl-4-(4-trifluoromethyl-phenyl)-pyridin-2-yl]-pyrimidin-2-yl}-pyridin-2-ylamine] | 5 nM | 217 °C |
| O=S(=O)(c1cccc(-c2cc(-c3nc(-c4ccc(C(F)(F)F)cc4)cc(C(F)(F)F)n3)ccn2)c1)N1CCOCC1 [Example 377, 4-(3-{4-[4-Trifluoromethyl-6-(4-trifluoromethyl-phenyl)-pyrimidin-2-yl]-pyridin-2-yl}-benzenesulfonyl)-morpholine] | 7 nM | 202 °C |
| Nc1ccc(-c2cn(-c3nc(-c4ccc(F)c(F)c4)cc(C(F)(F)F)n3)cn2)cn1 [Example 384, 5-{1-[4-(3,4-Difluoro-phenyl)-6-trifluoromethyl-pyrimidin-2-yl]-1H-imidazol-4-yl}-pyridin-2-ylamine] | 32 nM | 232 °C |
